Laboratory results reported in the NIST ThermoML archive (doi:10.1021/acs.jced.7b00971).

Experiments:
[1] = xn = mol fraction of the nth substance listed; details: 101 kPa, Liquid, Capillary tube (Ostwald / Ubbelohde) method
[2] = 101 kPa, Liquid, Capillary tube (Ostwald / Ubbelohde) method

Cc1cccc(C)c1 [1,3-dimethylbenzene] + CO
viscosity [mPa·s], [1]
Details | x2 = 0 | x2 = 0.1008 | x2 = 0.2003 | x2 = 0.2999 | x2 = 0.4 | x2 = 0.4997 | x2 = 0.6003 | x2 = 0.7001 | x2 = 0.8001 | x2 = 0.9012
303.15 K | 0.554 | 0.539 | 0.542 | 0.548 | 0.553 | 0.56 | 0.566 | 0.57 | 0.565 | 0.546
308.15 K | 0.524 | 0.51 | 0.51 | 0.514 | 0.519 | 0.526 | 0.53 | 0.532 | 0.526 | 0.509
313.15 K | 0.498 | 0.483 | 0.483 | 0.485 | 0.488 | 0.493 | 0.496 | 0.497 | 0.492 | 0.477
318.15 K | 0.472 | 0.456 | 0.456 | 0.457 | 0.46 | 0.462 | 0.465 | 0.466 | 0.46 | 0.445
323.15 K | 0.452 | 0.435 | 0.433 | 0.433 | 0.434 | 0.437 | 0.437 | 0.437 | 0.432 | 0.419

Cc1cccc(C)c1 [1,3-dimethylbenzene]
[2]
Details | viscosity [mPa·s]
303.15 K | 0.554
308.15 K | 0.524
313.15 K | 0.498
318.15 K | 0.472
323.15 K | 0.452

CO [methanol] + Cc1ccccc1C
[1], x1 = 1
Details | viscosity [mPa·s]
303.15 K | 0.513
308.15 K | 0.48
313.15 K | 0.45
318.15 K | 0.422
323.15 K | 0.397

CO [methanol]
[2]
Details | viscosity [mPa·s]
303.15 K | 0.513
308.15 K | 0.48
313.15 K | 0.45
318.15 K | 0.422
323.15 K | 0.397

Cc1ccccc1C [1,2-dimethylbenzene]
[2]
Details | viscosity [mPa·s]
303.15 K | 0.71
308.15 K | 0.666
313.15 K | 0.628
318.15 K | 0.591
323.15 K | 0.56

Cc1ccc(C)cc1 [1,4-dimethylbenzene]
[2]
Details | viscosity [mPa·s]
303.15 K | 0.574
308.15 K | 0.542
313.15 K | 0.514
318.15 K | 0.486
323.15 K | 0.461

Cc1ccccc1C [1,2-dimethylbenzene] + CO
viscosity [mPa·s], [1]
Details | x2 = 0 | x2 = 0.1007 | x2 = 0.2013 | x2 = 0.2961 | x2 = 0.403 | x2 = 0.5003 | x2 = 0.601 | x2 = 0.7025 | x2 = 0.8006 | x2 = 0.9013
303.15 K | 0.71 | 0.684 | 0.674 | 0.671 | 0.666 | 0.663 | 0.655 | 0.638 | 0.61 | 0.567
308.15 K | 0.666 | 0.641 | 0.631 | 0.626 | 0.621 | 0.617 | 0.607 | 0.595 | 0.567 | 0.53
313.15 K | 0.628 | 0.603 | 0.591 | 0.587 | 0.582 | 0.577 | 0.569 | 0.554 | 0.531 | 0.495
318.15 K | 0.591 | 0.566 | 0.555 | 0.55 | 0.543 | 0.538 | 0.531 | 0.516 | 0.494 | 0.462
323.15 K | 0.56 | 0.535 | 0.523 | 0.517 | 0.511 | 0.506 | 0.496 | 0.484 | 0.462 | 0.434

CO [methanol] + Cc1cccc(C)c1
[1], x1 = 1
Details | viscosity [mPa·s]
303.15 K | 0.513
308.15 K | 0.48
313.15 K | 0.45
318.15 K | 0.422
323.15 K | 0.397

CO [methanol] + Cc1ccc(C)cc1
[1], x1 = 1
Details | viscosity [mPa·s]
303.15 K | 0.513
308.15 K | 0.48
313.15 K | 0.45
318.15 K | 0.422
323.15 K | 0.397

Cc1ccc(C)cc1 [1,4-dimethylbenzene] + CO
viscosity [mPa·s], [1]
Details | x2 = 0 | x2 = 0.1001 | x2 = 0.1998 | x2 = 0.3015 | x2 = 0.4005 | x2 = 0.5 | x2 = 0.5999 | x2 = 0.7005 | x2 = 0.8 | x2 = 0.8984
303.15 K | 0.574 | 0.559 | 0.556 | 0.563 | 0.567 | 0.573 | 0.576 | 0.577 | 0.568 | 0.549
308.15 K | 0.542 | 0.527 | 0.524 | 0.527 | 0.529 | 0.533 | 0.536 | 0.536 | 0.529 | 0.512
313.15 K | 0.514 | 0.498 | 0.494 | 0.496 | 0.498 | 0.501 | 0.504 | 0.502 | 0.495 | 0.479
318.15 K | 0.486 | 0.469 | 0.465 | 0.466 | 0.467 | 0.469 | 0.469 | 0.469 | 0.462 | 0.447
323.15 K | 0.461 | 0.445 | 0.439 | 0.44 | 0.44 | 0.443 | 0.443 | 0.441 | 0.434 | 0.42
